Data from article PMC7104388 (Journal of medicinal chemistry, 2019).
Values belong to the compound of their own block, whether it stands above or below them.

What was measured:
P. falciparum Dd2 = assay: Parasite growth inhibition, parental Dd2; settings: Plasmodium falciparum
PAMPA permeability = assay type: in vitro ADME; settings: pH 7.4
[1] = test system: wild-type Pf Dd2 parasites; assay: Dual drug assay and isobologram analysis, 72 h; assay type: cell-based, P. falciparum; settings: WHZ-04 in combination with WLW-VS
Pf 3D7 = assay: Parasite growth inhibition, erythrocytic stage, SYBR Green 72 h
Pf20S β5 [2] = target: T1, Pf20S β5 (Plasmodium falciparum, UniProt A0A5K1K7U1+Q8IJT1)
T1 sequence (Q8IJT1 61-271): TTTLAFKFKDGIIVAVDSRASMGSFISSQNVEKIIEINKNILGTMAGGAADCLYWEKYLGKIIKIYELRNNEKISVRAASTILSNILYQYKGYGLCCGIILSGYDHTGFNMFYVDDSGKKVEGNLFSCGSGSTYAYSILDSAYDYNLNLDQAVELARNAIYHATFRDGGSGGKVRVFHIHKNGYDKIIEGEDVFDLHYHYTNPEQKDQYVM
T1 sequence (A0A5K1K7U1 29-240): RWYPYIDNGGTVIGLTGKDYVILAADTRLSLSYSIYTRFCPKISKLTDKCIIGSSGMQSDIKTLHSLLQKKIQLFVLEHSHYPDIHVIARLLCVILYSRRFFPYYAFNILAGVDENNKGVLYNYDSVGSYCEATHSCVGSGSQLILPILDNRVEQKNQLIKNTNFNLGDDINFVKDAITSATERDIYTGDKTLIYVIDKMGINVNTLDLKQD

[3] = test system: P. falciparum clinical isolates (Uganda); assay: Ex vivo 72-h growth inhibition of P. falciparum field isolates in Uganda; assay type: cell-based; settings: Plasmodium falciparum, read-out: EC50 range against Ugandan isolates
Pf20S β5 [4] = target: T1, Pf20S β5; assay: Pf20S active subunit labeling by MV151; assay type: binding, P. falciparum; settings: Figure 2B
c-20S β5c = c-20S β5c (Homo sapiens, UniProt P20618+P28074); assay: human c-20S β5c enzyme inhibition; assay type: biochemical
i-20S β5i = i-20S β5i (Homo sapiens, UniProt P20618+P28062); assay: human i-20S β5i enzyme inhibition; assay type: biochemical
Pf20S β5 [5] = target: T1, Pf20S β5; assay: biochemical; settings: IC50 Pf20S β5, Table 3; mean of at least three independent experiments

Compound: Cc1cc(C(=O)N[C@@H](CC(=O)NC(C)(C)C)C(=O)NCCNC(=O)c2cccc(-n3cccn3)c2)no1 [TDI4258]
EC90 (P. falciparum Dd2): 60 nM

Compound: Cc1ccc(S(=O)(=O)N[C@@H](CC(=O)NC(C)(C)C)C(=O)NCCNC(=O)c2ccccc2)cc1 [WHZ-04]
PAMPA @ pH7.4 (PAMPA permeability): 137 nm/sec | type of interaction by isobologram analysis [1]: synergistic to additive | ∑FIC ([1]; 72-h dual drug assay, three independent experiments): 0.52 ± 0.13

Compound: Cc1ccc(S(=O)(=O)N[C@@H](CC(=O)NC(C)(C)C)C(=O)NCCNC(=O)c2ccccc2F)cc1 [WHZ-05]
PAMPA @ pH7.4 (PAMPA permeability): 105 nm/sec | fold decrease in activity against cultured parasites compared to PKS21221 (Pf 3D7): 4.7 fold

fold reduction in potency relative to WHZ-04 (Pf20S β5 [2]): 6 fold
Compound: Cc1ccc(S(=O)(=O)N[C@@H](CC(=O)NC(C)(C)C)C(=O)NCCNC(=O)c2ccc(F)cc2)cc1 [WHZ-07]

fold reduction in potency relative to WHZ-04 (Pf20S β5 [2]): 10 fold
Compound: Cc1ccc(S(=O)(=O)N[C@@H](CC(=O)NC(C)(C)C)C(=O)NCCNC(=O)c2ccccc2Cl)cc1 [WHZ-08]

PAMPA @ pH7.4 (PAMPA permeability): 159 nm/sec | fold enhanced potency relative to WHZ-11 (Pf20S β5 [2]): 2.5 fold
Compound: COc1cccc(C(=O)NCCNC(=O)[C@H](CC(=O)NC(C)(C)C)NS(=O)(=O)c2ccc(C)cc2)c1 [WHZ-12]

PAMPA @ pH7.4 (PAMPA permeability): 203 nm/sec | fold enhanced potency relative to WHZ-11 (Pf20S β5 [2]): 4.8 fold
Compound: C#Cc1cccc(C(=O)NCCNC(=O)[C@H](CC(=O)NC(C)(C)C)NS(=O)(=O)c2ccc(C)cc2)c1 [WHZ-13]
EC50 [3]: 4.4 to 16 nM | inhibition of labeling of Pf20S β5 by MV151 (Pf20S β5 [4]): only inhibited the labeling of the Pf20S β5

Compound: Cc1ccc(S(=O)(=O)N[C@@H](CC(=O)NC(C)(C)C)C(=O)NCCNC(=O)c2c(O)cccc2F)cc1 [WHZ-20]
IC50 (c-20S β5c): > 100000 nM | fold of selectivity, β5c over Pf20S β5 (c-20S β5c; in parenthesis in Table 3): > 24.7 fold | IC50 (i-20S β5i): 9970 nM | fold of selectivity, β5i over Pf20S β5 (i-20S β5i; in parenthesis in Table 3): 2.5 fold | IC50 (Pf20S β5 [5]): 4060 nM

Compound: CCN(CC)CCCC(C)Nc1ccnc2cc(Cl)ccc12 (centres unmarked) [chloroquine, reference compound]
EC50 [3]: 4.5 to 27 nM
